Results on one compound are retold here after publication PMC2801564 (Chemistry & biology, 2009).

This assay deals with T1, cathepsin L (CatL) (Ixodes ricinus, UniProt A4GTA6).
T1 sequence (A4GTA6 119-335): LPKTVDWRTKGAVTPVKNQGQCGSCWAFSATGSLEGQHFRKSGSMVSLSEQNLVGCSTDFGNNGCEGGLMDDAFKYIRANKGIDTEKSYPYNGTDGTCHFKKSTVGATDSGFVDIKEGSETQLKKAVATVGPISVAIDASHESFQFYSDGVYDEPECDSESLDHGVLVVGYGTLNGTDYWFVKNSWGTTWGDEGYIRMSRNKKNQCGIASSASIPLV
As to the kind of experiment: fluorimetric inhibition assay in gut extract. In kind it is biochemical. Conditions: DTT; pH optimum; 35 °C; covalent.

Turning to `CC(C)C[C@H](NC(=O)[C@H]1O[C@@H]1C(=O)O)C(=O)NCCCCNC(=N)N` [E-64], the “% inhibition” value was “insensitive to E-64 (in contrast to cathepsins B, L and C)”.
